From ChEMBL document CHEMBL1201862, “PubChem BioAssay data set” (2004)
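Briefly, cells in 96-well plates were exposed to five compound concentrations for 48 h, and endpoints were estimated by linear interpolation. At the GI50, growth is halved.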 Calls of active or inactive are those of the source. Cut-off read from the data, not from the text of the source: active = GI50 up to about 1.1 µM and inactive = higher.

Columns and labels:
Test in all cases: NCI anticancer screen, dose series, 48 h
SNB-75 = test system: SNB-75
EKVX = test system: EKVX
RPMI-8226 = test system: RPMI-8226
SF-295 = test system: SF-295
SK-OV-3 = test system: SK-OV-3
NCI-H460 = test system: NCI-H460
T47D = test system: T47D
HCT-116 = test system: HCT-116
DU-145 = test system: DU-145
ACHN = test system: ACHN
IGROV-1 = test system: IGROV-1
A549 = test system: A549
OVCAR-3 = test system: OVCAR-3
UACC-62 = test system: UACC-62
COLO 205 = test system: COLO 205
MCF7 = test system: MCF7
TK-10 = test system: TK-10
HT-29 = test system: HT-29
NCI-H522 = test system: NCI-H522

SMILES	GI50 (SNB-75)	GI50 (EKVX)	GI50 (RPMI-8226)	GI50 (SF-295)	GI50 (SK-OV-3)	GI50 (NCI-H460)	GI50 (T47D)	GI50 (HCT-116)	GI50 (DU-145)	GI50 (ACHN)	GI50 (IGROV-1)	GI50 (A549)	GI50 (OVCAR-3)	GI50 (UACC-62)	GI50 (COLO 205)	GI50 (MCF7)	GI50 (TK-10)	GI50 (HT-29)	GI50 (NCI-H522)
Cc1ccc(S(=O)(=O)n2ccn3c(=O)cc(C)nc23)cc1	> 10 µM (inactive)	> 10 µM (inactive)	> 10 µM (inactive)	> 10 µM (inactive)	> 10 µM (inactive)	> 10 µM (inactive)	> 10 µM (inactive)	> 10 µM (inactive)	> 10 µM (inactive)	> 10 µM (inactive)	> 10 µM (inactive)	> 10 µM (inactive)	> 10 µM (inactive)	> 10 µM (inactive)	> 10 µM (inactive)	> 10 µM (inactive)	> 10 µM (inactive)	> 10 µM (inactive)	–
[N-]=[N+]=CC(=O)OCC1NC(=O)C(COC(=O)C=[N+]=[N-])NC1=O (stereo unspecified)	> 100 µM (inactive)	> 100 µM (inactive)	> 100 µM (inactive)	> 100 µM (inactive)	> 100 µM (inactive)	> 100 µM (inactive)	> 100 µM (inactive)	> 100 µM (inactive)	> 100 µM (inactive)	> 100 µM (inactive)	> 100 µM (inactive)	> 100 µM (inactive)	> 100 µM (inactive)	> 100 µM (inactive)	> 100 µM (inactive)	> 100 µM (inactive)	> 100 µM (inactive)	> 100 µM (inactive)	–
N#C[BH2-][n+]1cn(C2CC(O)C(COP(=O)(O)OC3CC(n4ccc(N)nc4=O)OC3CO)O2)c2nc(N)[nH]c(=O)c21 (stereo unspecified)	> 100 µM (inactive)	> 100 µM (inactive)	> 100 µM (inactive)	> 100 µM (inactive)	–	> 100 µM (inactive)	> 100 µM (inactive)	> 100 µM (inactive)	> 100 µM (inactive)	> 100 µM (inactive)	> 100 µM (inactive)	> 100 µM (inactive)	> 100 µM (inactive)	> 100 µM (inactive)	> 100 µM (inactive)	> 100 µM (inactive)	–	> 100 µM (inactive)	> 100 µM (inactive)
C=CCN1C(=O)C=C(c2ccccc2)n2ncc3cccc1c32	–	95.5 µM (inactive)	97.7 µM (inactive)	> 100 µM (inactive)	> 100 µM (inactive)	–	18.2 µM (inactive)	> 100 µM (inactive)	> 100 µM (inactive)	> 100 µM (inactive)	> 100 µM (inactive)	> 100 µM (inactive)	> 100 µM (inactive)	> 100 µM (inactive)	> 100 µM (inactive)	> 100 µM (inactive)	> 100 µM (inactive)	69.2 µM (inactive)	> 100 µM (inactive)
COc1ccc(C2C(C#N)=C(S)N(C3OC(COC(C)=O)C(OC(C)=O)C(OC(C)=O)C3OC(C)=O)C(c3ccccc3)=C2C(C)=O)cc1 (stereo unspecified)	18.7 µM (inactive)	–	92 µM (inactive)	> 100 µM (inactive)	–	> 100 µM (inactive)	17.3 µM (inactive)	> 100 µM (inactive)	> 100 µM (inactive)	> 100 µM (inactive)	> 100 µM (inactive)	> 100 µM (inactive)	> 100 µM (inactive)	41.8 µM (inactive)	> 100 µM (inactive)	63 µM (inactive)	> 100 µM (inactive)	> 100 µM (inactive)	61.4 µM (inactive)
Clc1ccc(OCc2nn3c(CCc4nnc5sc(COc6ccc(Cl)cc6)nn45)nnc3s2)cc1	–	27.7 µM (inactive)	17.3 µM (inactive)	24.5 µM (inactive)	28.8 µM (inactive)	18.4 µM (inactive)	22.4 µM (inactive)	21.9 µM (inactive)	19.1 µM (inactive)	15.1 µM (inactive)	16.8 µM (inactive)	–	16 µM (inactive)	–	–	21.4 µM (inactive)	26.4 µM (inactive)	27.8 µM (inactive)	5.62 µM (inactive)
CO/C(N)=C(C#N)/N=C/c1cccs1	73.5 µM (inactive)	42.4 µM (inactive)	–	> 100 µM (inactive)	> 100 µM (inactive)	> 100 µM (inactive)	76.6 µM (inactive)	42.2 µM (inactive)	> 100 µM (inactive)	> 100 µM (inactive)	77.6 µM (inactive)	> 100 µM (inactive)	49.8 µM (inactive)	35.5 µM (inactive)	36.6 µM (inactive)	24.4 µM (inactive)	> 100 µM (inactive)	25.9 µM (inactive)	18.4 µM (inactive)
CCN(CC)CCOc1ccc(N2C(=O)c3cc(OC)c(OC)cc3C2=O)cc1	–	> 100 µM (inactive)	> 100 µM (inactive)	> 100 µM (inactive)	> 100 µM (inactive)	> 100 µM (inactive)	> 100 µM (inactive)	> 100 µM (inactive)	> 100 µM (inactive)	> 100 µM (inactive)	> 100 µM (inactive)	> 100 µM (inactive)	> 100 µM (inactive)	> 100 µM (inactive)	> 100 µM (inactive)	> 100 µM (inactive)	> 100 µM (inactive)	> 100 µM (inactive)	> 100 µM (inactive)
O=C(NC(=O)c1cc(-c2ccccc2)n[nH]1)c1ccccc1	26.5 µM (inactive)	> 100 µM (inactive)	–	> 100 µM (inactive)	> 100 µM (inactive)	> 100 µM (inactive)	> 100 µM (inactive)	> 100 µM (inactive)	> 100 µM (inactive)	> 100 µM (inactive)	> 100 µM (inactive)	> 100 µM (inactive)	> 100 µM (inactive)	> 100 µM (inactive)	> 100 µM (inactive)	> 100 µM (inactive)	> 100 µM (inactive)	> 100 µM (inactive)	70.8 µM (inactive)
Brc1ccc(-c2[nH]c3ccccc3c2/C=N\Nc2ccc(-c3nc4ccccc4[nH]3)cc2)cc1	–	–	< 0.01 µM (active)	< 0.01 µM (active)	< 0.01 µM (active)	< 0.01 µM (active)	> 56.4 µM (inactive)	< 0.01 µM (active)	< 0.01 µM (active)	< 0.01 µM (active)	< 0.01 µM (active)	< 0.01 µM (active)	< 0.01 µM (active)	< 0.01 µM (active)	< 0.01 µM (active)	< 0.0171 µM (active)	–	< 0.01 µM (active)	< 0.01 µM (active)
CC(C)(C)OC(=O)N1C(=O)OC[C@@H]2C=C[C@@H]21	–	> 100 µM (inactive)	> 100 µM (inactive)	> 100 µM (inactive)	> 100 µM (inactive)	> 100 µM (inactive)	> 100 µM (inactive)	> 100 µM (inactive)	> 100 µM (inactive)	> 100 µM (inactive)	> 100 µM (inactive)	> 100 µM (inactive)	> 100 µM (inactive)	> 100 µM (inactive)	> 100 µM (inactive)	> 100 µM (inactive)	> 100 µM (inactive)	> 100 µM (inactive)	> 100 µM (inactive)
CO[C@@H]1C[C@H]2[C@@H]3CC[C@H]([C@@H](C)COC(C)=O)[C@@]3(C)CC[C@@H]2[C@@]2(C)CC[C@H]3C[C@]312	17.9 µM (inactive)	14.5 µM (inactive)	8.67 µM (inactive)	15.1 µM (inactive)	–	10.1 µM (inactive)	13.2 µM (inactive)	10.2 µM (inactive)	14 µM (inactive)	16.6 µM (inactive)	15.5 µM (inactive)	15.9 µM (inactive)	14.6 µM (inactive)	–	0.879 µM (active)	9.48 µM (inactive)	> 10 µM (inactive)	6.92 µM (inactive)	16.2 µM (inactive)
N#CC1=C(Nc2ccccc2)SC=C(c2ccccc2)N=C1NCc1ccccc1	–	–	18.7 µM (inactive)	–	> 100 µM (inactive)	–	> 100 µM (inactive)	> 100 µM (inactive)	> 100 µM (inactive)	> 100 µM (inactive)	–	> 100 µM (inactive)	> 100 µM (inactive)	> 100 µM (inactive)	65.5 µM (inactive)	> 100 µM (inactive)	> 100 µM (inactive)	–	53.8 µM (inactive)
CC(=O)Nc1ccc2c(c1)nc1c3ccccc3ccn21	71.9 µM (inactive)	> 100 µM (inactive)	–	85.9 µM (inactive)	> 100 µM (inactive)	> 100 µM (inactive)	> 100 µM (inactive)	55.6 µM (inactive)	> 100 µM (inactive)	> 100 µM (inactive)	> 100 µM (inactive)	> 100 µM (inactive)	–	> 100 µM (inactive)	> 100 µM (inactive)	> 100 µM (inactive)	> 100 µM (inactive)	> 100 µM (inactive)	> 100 µM (inactive)
Cc1nnc(N)nc1/C=C\c1cccs1	–	13.3 µM (inactive)	22.4 µM (inactive)	21.4 µM (inactive)	36.5 µM (inactive)	14.7 µM (inactive)	46.9 µM (inactive)	17.3 µM (inactive)	79.6 µM (inactive)	15 µM (inactive)	12 µM (inactive)	27.7 µM (inactive)	–	14.9 µM (inactive)	27.7 µM (inactive)	13.9 µM (inactive)	32.4 µM (inactive)	14.1 µM (inactive)	4.06 µM (inactive)
CN(C)c1nc(NC23CC4CC(CC(C4)C2)C3)nc(N(C)C)n1	7.35 µM (inactive)	11.3 µM (inactive)	3.58 µM (inactive)	6.28 µM (inactive)	> 26.1 µM (inactive)	16.6 µM (inactive)	7.29 µM (inactive)	20.7 µM (inactive)	16.4 µM (inactive)	22.3 µM (inactive)	–	8.59 µM (inactive)	17.2 µM (inactive)	25.8 µM (inactive)	11.7 µM (inactive)	8.15 µM (inactive)	35.6 µM (inactive)	26.6 µM (inactive)	–
